Experimental data reported in US12668611B2, “Cell-penetrating peptide and use thereof” (IMNEWRUN, INC., priority 2020, dated 2026).
Peptide text beside a SMILES is read from it.

Assays:
[1] = test system: hCMEC/D3 cells, which are human blood-brain barrier cells; assay: In vitro cell permeability analysis (FITC fluorescence imaging, Cytation 5); assay type: cell-based; details: peptides linked to FITC, 4 μM, 2 hours, FIG. 1
Protocol: The present inventors performed in vitro cell permeability analysis on a total of 12 candidate peptides synthesized in Example 1 above. Specifically, hCMEC/D3 cells, which are human blood-brain barrier cells, were seeded in a 96-well plate at 18,000 cells/well, and incubated overnight at 37° C. under CO2 conditions in a endothelial cell growth medium (EGM), which is an […], until the cells reached 80% to 90% of the plate area. Subsequently, the 12 candidate peptides linked to FITC prepared in Example 1-2 and FITC alone, a negative control, were diluted in the medium to 4 μM to prepare an amount to be treated by 100 μl per well. Subsequently, the culture solution was removed from the cell culture plate by suction, and the peptide was diluted and treated with the solution prepared in advance, and then cultured at 37° C. under CO2 conditions for 2 hours. […] After incubation, DAPI and GFP fluorescence were image read by using a Cytation 5 equipment, and the cell nucleus was parcellated with DAPI by image processing. Subsequently, a value of 20 μM of FITC around the cell nucleus was measured, divided by DAPI to obtain a mean-FITC value, and the value was corrected with a value of FITC experimental group, a negative control group, to calculate permeability in the blood-brain barrier cells. […]

[2] = test system: hCMEC/D3 cell line; assay: Comparative analysis of cell permeation effect through flow cytometry; assay type: cell-based, human; details: 10 μM, 2 hours, p<0.0001, FIG. 4
Protocol: First, with respect to the transpep-1-FITC and angiopep-2-FITC prepared in Example 1-2, an amount of fluorescence inflow into a single cell was identified and quantified through flow cytometry. Specifically, an hCMEC/D3 cell line was aliquoted at 15,000 cells/well using an EGM culture medium containing 2% bovine calf serum (BCS), and 24 hours later, cells were treated with each of the two peptides at a concentration of 10 μM, and then were incubated for 2 hours at 37° C., under CO2 conditions. Thereafter, the cells were washed with 1×PBS, and then were separated from the bottom of the plate by incubating for 3 minutes after 1.1% trypsinase-EDTA (TE) was added, and then an EGM cell culture solution of about 3 times the amount of TE was added, and the sample was centrifuged at 100 rpm for 5 minutes. Next, the supernatant was removed by suction, and the cells were resuspended in 250 μl of 1×PBS, and then transferred to a BD Falcon 12×75 mm Tube with Cell Strainer Cap, and inflow of fluorescence according to each peptide was analyzed by flow cytometry.

[3] = test system: C57BL/6 mice; assay: Comparative analysis of in vivo blood-brain barrier (BBB) permeability (two-photon microscopy); design: species or system mouse; details: 15 mg/kg tail vein, imaging for 90 minutes; FIG. 5A-5F
Protocol: Specifically, in order to perform in vivo real-time imaging using a two photon microscopy, operations to install a cranial window were performed in living mice (C57BL/6). Before making the cranial window, inhalation anesthesia was induced with 3% isoflurane in the mice, and the body temperature of the mice was maintained at 36.5° C. to 37.5° C. by using a heating pad. After induction of anesthesia, the concentration of isoflurane was adjusted to 1.5% to maintain anesthesia. In addition, to confirm the degree of maintenance of anesthesia, heart rate and SpO2 were confirmed in real time. Afterwards, craniotomy was performed by using a dental drill in order that the cranial window has a diameter of 3 mm at the skull coordinates of ML, +2.5 mm, and AP, −1.5 mm. After the skull was removed by craniotomy, the brain was covered with a cover glass having a diameter of 4 mm, and the cover glass was adhered by using a cyanoacrylic bond. Next, a head frame, capable of fixing the mouse's head under a two-photon microscope, was attached so that the cover glass would come to the center. After a first bonding of the cover glass and the frame by using the bond, a second bonding was performed and all exposed skulls were covered from the border of the cover glass with dental resin so that imaging could be performed by using a water immersion lens. […]

Row | Compound | cell permeability (FITC fluorescence) [1] | fluorescence intensity (inflow into single cell) compared to angiopep-2-FITC [2] | amount delivered to the extravascular area compared to angiopep-2-FITC [3] | fluorescence in the intravascular region (in vivo stability) compared to angiopep-2-FITC [3]
1 | GHHERLKSDEWSVTSG (transpep-1) | confirmed to have cell permeability | significantly higher | – | –
2 | CC(C)C[C@H](NC(=O)[C@H](CCCNC(=N)N)NC(=O)[C@H](CCC(=O)O)NC(=O)[C@H](Cc1c[nH]cn1)NC(=O)[C@H](Cc1c[nH]cn1)NC(=O)CNC(=S)Nc1ccc2c(c1)C(=O)OC21c2ccc(O)cc2Oc2cc(O)ccc21)C(=O)N[C@@H](CCCCN)C(=O)N[C@@H](CO)C(=O)N[C@@H](CC(=O)O)C(=O)N[C@@H](CCC(=O)O)C(=O)N[C@@H](Cc1c[nH]c2ccccc12)C(=O)N[C@@H](CO)C(=O)N[C@H](C(=O)N[C@H](C(=O)N[C@@H](CO)C(=O)NCC(=O)O)[C@@H](C)O)C(C)C [transpep-1-FITC] (HELM PEPTIDE1{[O=C1OC2(c3ccc(O)cc3Oc3cc(O)ccc32)c2ccc(NC(=S)[*:2])cc21].G.H.H.E.R.L.K.S.D.E.W.S.V.T.S.G}$$$$V2.0) | – | – | greater | higher in vivo stability
